Experiment [1] concerns beet armyworm larvae. Description: Leaf dip test, beet armyworm larvae. It counts as in vivo. The settings on record: Spodoptera exigua, foliar, Bta/Btk 0.8125 ppm, cyantraniliprole 1.0 ppm, mixture 0.8125 ppm + 1.0 ppm (Ratio 1:1.23), read-out: % Efficacy.
Description: (§1) Sympatico™ emulsifiable suspension (available from Valent BioSciences LLC) was used as the source of Bacillus thuringiensis subsp. aizawai and Bacillus thuringiensis kurstaki. Sympatico™ contains about a 1:0.67 ratio of Bacillus thuringiensis subsp. kurstaki fermentation solids, spores and toxins to Bacillus thuringiensis subsp. aizawai fermentation solids, spores and toxins. Belt® was used as the source of cyantraniliprole. […] In each example below, the studies were conducted as follows.
(§2) For these tests, standardized laboratory leaf dip methods were used to inoculate plant material with treatment(s). Dry, treated leaves were placed into Petri dishes (100×25 mm) containing filter paper wetted with 500 μl of distilled H2O (“dH2O”). Each dish was then infested with between 5 and 10 larvae, dependent on species. Efficacy ratings were taken at specified intervals. Synergy ratings were calculated for each test.
(§3) % Cexp=A+B−(AB/100), where % Cexp is the expected efficacy and “in which A and B are the control levels given by the single [insecticides].
Bacillus thuringiensis subsp. aizawai/Bacillus thuringiensis subsp. kurstaki was applied at a concentration of 0.8125 ppm (0.8125 μg/ml). Cyantraniliprole was applied at a concentration of 1.0 ppm (1.0 μg/ml). […]
Experiment [2] has as its system cabbage looper larvae. The experiment can be described thus: Leaf dip test, cabbage looper larvae. It counts as in vivo. The settings on record: Trichoplusia ni, foliar, Bta/Btk 0.8125 ppm, cyantraniliprole 0.50 ppm, mixture 0.8125 ppm + 0.50 ppm (Ratio 1:0.62), read-out: % Efficacy.
Description: as §1, §2, §3
In this study, the response of cabbage looper larvae to amounts of Bacillus thuringiensis subsp. aizawai, Bacillus thuringiensis subsp. kurstaki and cyantraniliprole was observed.
Bacillus thuringiensis subsp. aizawai/Bacillus thuringiensis subsp. kurstaki was applied at a concentration of 0.8125 ppm (0.8125 μg/ml). […]
Experiment [3] deals with corn earworm larvae. Description: Leaf dip test, corn earworm larvae. The settings on record: Helicoverpa zea, foliar, Bta/Btk 2.6 ppm, cyantraniliprole 10.0 ppm, mixture 2.6 ppm + 10.0 ppm (Ratio 1:3.85), read-out: % Efficacy. It counts as in vivo.
Description: In each example below, the studies were conducted as follows.
as §2
% Cexp=A+B−(AB/100), where % Cexp is the expected efficacy and “in which A and B are the control levels given by the single [insecticides]. […] Adopting a conservative approach, Applicant will determine if synergy is present at ratios of ≥1.15.
In this study, the response of corn earworm larvae to amounts of Bacillus thuringiensis subsp. aizawai, Bacillus thuringiensis subsp. kurstaki and cyantraniliprole was observed.
Bacillus thuringiensis subsp. aizawai/Bacillus thuringiensis subsp. kurstaki was applied at a concentration of 2.6 ppm (2.6 μg/ml). Cyantraniliprole was applied at a concentration of 10.0 ppm (10.0 μg/ml). The Bacillus thuringiensis subsp. aizawai/Bacillus thuringiensis kurstaki/cyantraniliprole mixture was applied at a concentration of 2.6 ppm Bacillus thuringiensis subsp. kurstaki/Bacillus thuringiensis subsp. aizawai and 10.0 ppm cyantraniliprole.
Experiment [4] relates to sugarcane borer larvae. The experiment can be described thus: Leaf dip test, sugarcane borer larvae. It counts as in vivo. The settings on record: Diatraea saccharalis, foliar, Bta/Btk 0.8125 ppm, cyantraniliprole 1.0 ppm, mixture 0.8125 ppm + 1.0 ppm (Ratio 1:1.23), read-out: % Efficacy.
Excerpt: (§4) The following examples were used to determine the synergy of Bacillus thuringiensis subsp. aizawai, Bacillus thuringiensis subsp. kurstaki and cyantraniliprole when controlling diamondback moth, beet armyworm, sugarcane borer, soybean looper, corn earworm, cabbage looper, and southwestern corn borer. Sympatico™ emulsifiable suspension (available from Valent BioSciences LLC) was used as the source of Bacillus thuringiensis subsp. aizawai and Bacillus thuringiensis kurstaki. Sympatico™ contains about a 1:0.67 ratio of Bacillus thuringiensis subsp. kurstaki fermentation solids, spores and toxins to Bacillus thuringiensis subsp. aizawai fermentation solids, spores and toxins. Belt® was used as the source of cyantraniliprole. […] In each example below, the studies were conducted as follows.
as §2
(§5) % Cexp=A+B−(AB/100), where % Cexp is the expected efficacy and “in which A and B are the control levels given by the single [insecticides]. […]
Experiment [5] has as its system diamondback moth larvae. Description: Leaf dip test, diamondback moth larvae. The experiment is classed as in vivo. The settings on record: Plutella xylostella, foliar, Bta/Btk 0.8125 ppm, cyantraniliprole 0.12 ppm, mixture 0.8125 ppm + 0.12 ppm (Ratio 1:0.12), read-out: % Efficacy. From the text:
The following examples were used to determine the synergy of Bacillus thuringiensis subsp. aizawai, Bacillus thuringiensis subsp. kurstaki and cyantraniliprole when controlling diamondback moth, beet armyworm, sugarcane borer, soybean looper, corn earworm, cabbage looper, and southwestern corn borer. Sympatico™ emulsifiable suspension (available from Valent BioSciences LLC) was used as the source of Bacillus thuringiensis subsp. aizawai and Bacillus thuringiensis kurstaki. Sympatico™ contains about a 1:0.67 ratio of Bacillus thuringiensis subsp. kurstaki fermentation solids, spores and toxins to Bacillus thuringiensis subsp. aizawai fermentation solids, spores and toxins. Belt® was used as the source of cyantraniliprole. The present invention is not limited to the commercial products used in the examples. […]
For these tests, standardized laboratory leaf dip methods were used to inoculate plant material with treatment(s). […] Synergy ratings were calculated for each test. […]
In order to determine synergy, rates below normal field rate ranges must be used. If normal field rate ranges are used, all of the larvae would die (combining a lethal or near lethal dose of Bacillus thuringiensis subsp. aizawai and Bacillus thuringiensis subsp. kurstaki with a lethal dose of cyantraniliprole would most likely lead to larvae death) in every treatment and synergy would not be able to be determined. […]

In experiment [6] the test system is southwestern corn borer larvae. Description: Leaf dip test, southwestern corn borer larvae. The experiment is classed as in vivo, Diatraea grandiosella. The settings on record: foliar, Bta/Btk 0.8125 ppm, cyantraniliprole 0.1 ppm, mixture 0.8125 ppm + 0.1 ppm (Ratio 1:0.12), read-out: % Efficacy.
Excerpt: as §4, §2, §5
Experiment [7] has as its system soybean looper larvae. The experiment can be described thus: Leaf dip test, soybean looper larvae. The experiment is classed as in vivo, Chrysodeixis includens. The settings on record: foliar, Bta/Btk 0.26 ppm, cyantraniliprole 1.0 ppm, mixture 0.26 ppm + 1.0 ppm (Ratio 1:15), read-out: % Efficacy.
Description: Belt® was used as the source of cyantraniliprole. […] In each example below, the studies were conducted as follows.
as §2, §3
In this study, the response of soybean looper larvae to Bacillus thuringiensis subsp. aizawai, Bacillus thuringiensis subsp. kurstaki and cyantraniliprole was observed.
Bacillus thuringiensis subsp. aizawai/Bacillus thuringiensis subsp. kurstaki was applied at a concentration of 0.26 ppm (0.26 μg/ml). Cyantraniliprole was applied at a concentration of 1.0 ppm (1.0 μg/ml). The Bacillus thuringiensis subsp. aizawai/Bacillus thuringiensis kurstaki/cyantraniliprole mixture was applied at a concentration of 0.26 ppm Bacillus thuringiensis subsp. aizawai/Bacillus thuringiensis subsp. kurstaki and 1.0 ppm cyantraniliprole.

Like-named read-outs stand apart in the source and are kept apart here.

Turning to `CNC(=O)c1cc(C#N)cc(C)c1NC(=O)c1cc(Br)nn1-c1ncccc1Cl` [Cyantraniliprole, 3-Bromo-1-(3-chloro-2-pyridinyl)-N-[4-cyano-2-methyl-6-(methylcarbamoyl)phenyl]-1H-pyrazole-5-carboxamide], the Emax at 1 ppm amounted to 20% in experiment [1] (24 h after treatment); 35% in experiment [1] (48 h after treatment); 24% in experiment [4] (24 h after treatment); 35% in experiment [4] (48 h after treatment); 12% in experiment [7] (24 h after treatment); 41% in experiment [7] (48 h after treatment). Also, the values for the Emax at 0.5 ppm in experiment [2] (24 h after treatment) and in experiment [2] (48 h after treatment) were 18% and 40%, respectively. Further, the values for the Emax at 10 ppm in experiment [3] (24 h after treatment) and in experiment [3] (48 h after treatment) were 44% and 60%, respectively. The Emax at 0.12 ppm in experiment [5] (24 h after treatment) came to 29%; in experiment [5] (48 h after treatment) it was 52%. Further, the results for the Emax at 0.1 ppm in experiment [6] (24 h after treatment) and in experiment [6] (48 h after treatment) were 15% and 32%, respectively.

For the origin of these results see US9968098B2, “Synergistic Bacillus thuringiensis subsp. aizawai, Bacillus thuringiensis subsp. kurstaki and cyantraniliprole mixtures for diamondback moth, beet armyworm, southwestern corn borer, and corn earworm” (Valent BioSciences LLC, priority 2016, dated 2018).
